In patent US9839647B2, “Equol concentration increasing agent containing psicose as active ingredient” (CJ CHEILJEDANG CORPORATION, priority 2011, dated 2017):

Tested on: intestinal bacteria capable of producing equol
Experiment: not given
Settings: saccharide no add = 100.0; cited from earlier work

In order of rising “Activity to regulate equol concentration” value:
1. OC[C@H]1O[C@@H](O[C@H]2[C@H](O)[C@@H](O)C(O)O[C@@H]2CO)[C@H](O)[C@@H](O)[C@H]1O (some centres unmarked) [Lactose]  0.0%
2. OC[C@H]1O[C@H](OC[C@H]2O[C@H](O[C@]3(CO)O[C@H](CO)[C@@H](O)[C@@H]3O)[C@H](O)[C@@H](O)[C@@H]2O)[C@H](O)[C@@H](O)[C@H]1O [Raffinose]  0.0%
3. OC[C@H]1O[C@@](CO)(O[C@H]2O[C@H](CO)[C@@H](O)[C@H](O)[C@H]2O)[C@@H](O)[C@@H]1O [Sucrose, sucrose]  0.0%
4. Inulin  0.0%
5. OC[C@H]1O[C@@H](O[C@@H]2[C@@H](CO)OC(O)(CO)[C@H]2O)[C@H](O)[C@@H](O)[C@H]1O (mixture of isomers) [Lactulose]  8.1%
6. OC[C@H]1O[C@H](OCC2O[C@@H](O)[C@H](O)[C@@H](O)[C@@H]2O)[C@H](O)[C@@H](O)[C@H]1O (some centres unmarked) [Melibiose]  24.8%
7. O=C(CO)[C@@H](O)[C@H](O)[C@H](O)CO [Fructose]  51.5%
8. OC[C@H]1O[C@H](O[C@H]2[C@H](O)[C@@H](O)[C@H](O)O[C@@H]2CO)[C@H](O)[C@@H](O)[C@@H]1O [Maltose]  58.5%
9. C[C@H](O)[C@H](O)[C@@H](O)[C@@H](O)C=O [Rhamnose]  116.4%
10. O=C[C@H](O)[C@@H](O)[C@H](O[C@@H]1O[C@H](CO)[C@@H](O)[C@H](O)[C@H]1O)[C@H](O)CO [Cellobiose]  160.6%
11. OC[C@@H](O)[C@@H](O)[C@H](O)[C@H](O)CO [Mannitol]  182.2%
12. Glycogen  184.8%
13. OC[C@@H](O)[C@@H](O)CO [Erythritol, erythritol]  214.2%
14. O=C[C@H](O)[C@@H](O)[C@@H](O)[C@H](O)CO [Galactose, galactose]  240.1%
15. OC[C@@H](O)[C@@H](O)[C@@H](O)CO [Adonitol, adonitol]  260.0%
16. O=C[C@H](O)[C@H](O)[C@H](O)CO [Ribose, ribose]  329.6%
17. OC[C@@H](O)[C@@H](O)[C@H](O)[C@@H](O)CO [Sorbiol]  372.5%
18. O=C[C@@H](O)[C@H](O)[C@H](O)CO [Arabinose, arabinose]  391.1%
19. OC[C@H]1O[C@H](O[C@H]2O[C@H](CO)[C@@H](O)[C@H](O)[C@H]2O)[C@H](O)[C@@H](O)[C@@H]1O [Trehalose, trehalose]  403.5%
20. OC[C@H]1O[C@@](CO)(O[C@H]2O[C@H](CO)[C@@H](O)[C@H](O)[C@H]2O)[C@@H](O[C@H]2O[C@H](CO)[C@@H](O)[C@H](O)[C@H]2O)[C@@H]1O [Melezitose, melezitose]  411.6%
21. O[C@H]1[C@H](O)[C@@H](O)[C@H](O)[C@@H](O)[C@H]1O [Inositol, inositol]  416.2%
22. O=C[C@H](O)[C@@H](O)[C@H](O)CO [Xylose, xylose]  442.6%
23. OC[C@@H](O)[C@@H](O[C@@H]1O[C@H](CO)[C@H](O)[C@H](O)[C@H]1O)[C@H](O)[C@@H](O)CO [Lactitol, lactitol]  459.1%
24. O=C(CO)[C@H](O)[C@@H](O)[C@H](O)CO [Sorbose, sorbose]  467.7%

Tested on: equol producing microorganism population
Experiment: Change in produced equol amount in the presence of carbohydrate (TLC image analysis)
Type: cell-based, human
Settings: 1% carbohydrate, 0.1 mM daidzein, three days; xylose = 100; average of image analysis for two coloring methods
Procedure: The activity for regulating equol concentration by psicose was calculated as follows. To a microorganism population stock having capability to produce equol (obtained by centrifuging and washing feces taken from equol producers, KR Patent Registration No. 2008-0072635), daidzein as a substrate for equol, and psicose were added, followed by culturing and measuring the equol concentration in a culture solution. The measured equol concentration was inserted together with equol concentration in a culture solution containing daidzein and xylose into Equation for calculating equol variation percentage below: Equol variation percentage (%)=(Equol concentration in the culture solution containing psicose and daidzein)/(Equol concentration in the culture solution containing xylose and daidzein)×100
GAM (Gifu anaerobic medium) medium (4 ml) was inoculated with equol producing microorganism population stock stored in liquid nitrogen (obtained by centrifuging and washing feces taken from equol producers, KR Patent Registration No. 2008-0072635), followed by cultivating for 3-4 hours to activate.
When OD (optical density) approached 1.5, 200 μl of medium was taken and transferred to an Eppendorf tube. To the Eppendorf tube, 0.1 mM of daidzein was added, followed by vortexing to initiate reaction.
In order to measure equol production over time, 50 μl of medium was sampled 1, 2 and 3 days after the inoculation.
To the medium, 1 ml of ethyl acetate was added to extract isoflavonoids. Extraction was performed as follows: after vortexing and centrifugation, 800 μl of ethyl acetate was taken from the medium, followed by removal of the solvent through vacuum drying. Then, the resultant was dissolved in 10 μl of methanol. 2 μl was used to perform TLC.
Equol producing microorganism population was inoculated and the product was extracted in the same manner as in Example 1 except that, before the substrate was inoculated with the activated microorganism population, the final concentration of carbohydrate was adjusted to 1% by adding 2 mg each of xylose, tagatose, psicose, sucrose, fructo-oligosaccharide, and glucose. Further, only daidzein was used as the substrate. Unlike the case where pure daidzein was used, the reaction rate of producing equol was changed when carbohydrates were added. Namely, the production of equol occurred more slowly for a long period of time.
In order to compare variation in the produced equol amount in the product, quantitative analysis of TLC results was performed using an image analyzer.
Assuming the produced equol amount in the culture solution containing xylose and daidzein to be 100, the produced equol amount after addition of each carbohydrate for three days was compared. The comparison results are as follows.

In order of falling “Variation (produced equol amount relative to culture solution containing xylose and daidzein)” value:
1. O=C(CO)[C@H](O)[C@H](O)[C@H](O)CO [Psicose, D-psicose]  139%
2. O=C[C@H](O)[C@@H](O)[C@H](O)CO [Xylose, xylose]  100%
3. OC[C@H]1O[C@@](CO)(O[C@H]2O[C@H](CO)[C@@H](O)[C@H](O)[C@H]2O)[C@@H](O)[C@@H]1O [Sucrose, sucrose]  54%
4. O=C(CO)[C@@H](O)[C@@H](O)[C@H](O)CO [Tagatose, tagatose]  54%

Same assay, conditions: reaction condition for three days

In the case of `O=C(CO)[C@H](O)[C@H](O)[C@H](O)CO` [Psicose, D-psicose], the equol production is reported as “significantly promoted equol production”.
